In article PMC2829539, “Unchanged triclabendazole kinetics after co-administration with ivermectin and methimazole: failure of its therapeutic activity against triclabendazole-resistant liver flukes” (BMC Veterinary Research, 2010):
Values joined by “and” are separate entries in the source; they are usually repeats but may differ in a detail not shown here. Identical values can stand only once.

Assays:
[1] = Plasma disposition kinetics of TCBZ metabolites in F. hepatica-infected sheep (HPLC, non-compartmental analysis); type: in vivo; details: for AUC0-∞ / AUC0-t / Cmax / MRT (mean residence time) / T1/2el (elimination half-life) / T1/2for (formation half life) / Tmax: in vivo, 10 mg/kg; for Time metabolites were recovered in plasma post-treatment: sheep plasma, both treated groups, last sampling time 144 h; for AUC0-t / Cmax / MRT (mean residence time) / T1/2el (elimination half-life) / T1/2for (formation half life) / Tmax: sheep
Description: (§1) Animals were each orally infected with eighty (80) metacercariae of a TCBZ-resistant F. hepatica isolate, named Sligo. For details of the history of the Sligo isolate, see previous works. Sixteen weeks after infection, animals were randomly distributed into three experimental groups (n = 4 each): Group I, which represented the untreated control group; Group II, in which animals were treated with TCBZ (Fasinex®, Novartis) by the i.r. route at 10 mg/kg dose rate; and Group III, in which animals were simultaneously treated with TCBZ (Fasinex®, Novartis) by the i.r. route (10 mg/kg) and IVM (Ivosint®, Biogénesis) by the s.c. route (0.2 mg/kg, internal face of the thigh). Additionally, animals in Group III were treated by the intramuscular (i.m.) route (Semitendinosus muscle) with MTZ (2.5% aqueous solution) at a dose rate of 1.5 mg/kg. MTZ administration was performed 30 min after TCBZ/IVM treatment. Blood samples (5 ml) were taken by jugular venipunctures into heparinised Vacutainers® tubes (Becton Dickinson, USA) before administration (time 0) and at 1, 3, 6, 9, 12, 18, 24, 30, 36, 48, 72, 96, 120 and 144 h post-treatment. Plasma was separated by centrifugation at 3000 g for 15 min, placed into plastic tubes and frozen at -20°C until analyzed by high performance liquid chromatography (HPLC).
TCBZ and its metabolites were extracted from plasma as previously described. Samples (1 ml) were spiked with 10 μl of oxibendazole (OBZ) (100 μg/ml), used as internal standard. After addition of 2 ml of acetonitrile, samples were shaken for 20 min (multivortex) and then centrifuged at 2500 g for 15 min. The supernatants were recovered and evaporated to dryness in a vacuum concentrator (Speed-Vac®, Savant, Los Angeles, USA). The dry extracts were reconstituted in 300 μl of mobile phase and an aliquot of 50 μl was injected into the HPLC system.
Experimental and fortified plasma samples were analysed by HPLC to determine the concentration of TCBZ and its metabolites following the methodology previously described. The elution from the stationary phase (Selectosil C18 column, 5 μm, 250 × 4.6 mm, Phenomenex®, CA, USA) was carried out at a flow rate of 1.2 ml/min, using a mixture of acetonitrile/ammonium acetate (0.025 M, pH 6.6) as mobile phase. Fifty μl of each previously extracted sample were injected into a Shimadzu 10 A HPLC System (Kyoto, Japan), using a gradient pump, UV detector set at 300 nm, an autosampler and a controller (Shimadzu Class LC10, Kyoto, Japan). Analytes were identified by the retention times of pure reference standards. Chromatographic retention times were: 4.09 (OBZ), 5.91 (TCBZ.SO), 7.95 (TCBZ.SO2) and 10.36 (TCBZ) min. […] The absolute recovery of drug analytes from plasma was calculated by comparison of the peak areas from spiked plasma samples with the peak areas resulting from direct injections of standards in mobile phase. Mean absolute recoveries and coefficient of variations (CV) within the concentration range between 0.1 and 25 μg/ml (triplicate determinations) were 89.2% (CV: 6.74%) (TCBZ), 87.1% (CV: 6.03%) (TCBZ.SO) and 90.1% (CV: 4.75%) (TCBZ.SO2). Precision (intra- and inter-assay) was determined by analysing replicates of fortified plasma samples (n = 5) with each compound at three different concentrations (0.1, 5 and 10 μg/ml). CV ranged from 2.54 to 14.6%. The limit of quantification (LOQ) was defined as the lowest measured concentration with a CV <20% and accuracy of ±20% and an absolute recovery ≥70%. The LOQ defined for the three molecules assayed was 0.1 μg/ml. Values below LOQ were not included in the pharmacokinetic analysis.
The concentration versus time curves for TCBZ metabolites in plasma for individual animals were fitted with the PKSolutions™ computer program/programme (Summit Research Service, Ashland, USA). Pharmacokinetic analysis of the experimental data was performed by non-compartmental analysis. […]

[2] = system: TCBZ-resistant F. hepatica (Sligo isolate); assay: Clinical efficacy study: fluke counts 15 days after treatment; type: in vivo, Fasciola hepatica
Description: as §1
Fifteen days after treatment all animals were stunned and exsanguinated immediately. Adult F. hepatica specimens were recovered from the common bile ducts and the gall bladder of each sheep and counted according to the World Association for the Advancement of Veterinary Parasitology (W.A.A.V.P) guidelines. The efficacy of each anthelmintic treatment was determined by the comparison of F. hepatica burdens in treated versus untreated animals. The following equation expresses the percent efficacy (% E) of a drug treatment against F. hepatica (F.h.) in a single treatment group (T) when compared with an untreated control (C). [drawing 1]
The geometric mean was used as it most accurately represents the distribution of parasite populations within each group.

[3] = parameters: method as in Alvarez et al., 2008; details: ref Alvarez et al., 2008, cited from earlier work

| SMILES | AUC0-∞ [1] | Time metabolites were recovered in plasma post-treatment [1] | AUC0-t [1] | Cmax [1] | MRT (mean residence time) [1] | T1/2el (elimination half-life) [1] | T1/2for (formation half life) [1] | Tmax [1] | Individual fluke counts ([2]; sheep infected with 80 metacercariae, treated 16 weeks after infection, counted 15 days post-treatment, one value per animal (n = 4)) | Arithmetic mean fluke count ([2]; sheep, 15 days post-treatment, n = 4, untreated control 13.25) | Clinical efficacy ([2]; sheep, 15 days post-treatment, versus untreated control, calculated using geometric means) | Initial plasma concentration ([3]; after i.v. administration) | Peak plasma concentration ([3]; after s.c. administration at the same dose rate) | Share of the total analytes found in sheep plasma ([1]; after i.r. administration of TCBZ) |
| --- | --- | --- | --- | --- | --- | --- | --- | --- | --- | --- | --- | --- | --- | --- |
| CS(=O)(=O)c1nc2cc(Oc3cccc(Cl)c3Cl)c(Cl)cc2[nH]1 [TCBZ.SO2, triclabendazole sulphone] | 917.9 ± 270.6 µg·h/mL | up to 144 h | 868.2 ± 217.6 µg·h/mL | 13500 ± 1680 ng/mL | 61.3 ± 17.2 h | 26.8 ± 10.9 h | 12.3 ± 2.90 h | 39.0 ± 6.00 h |  |  |  |  |  |  |
| CSc1nc2cc(Cl)c(Oc3cccc(Cl)c3Cl)cc2[nH]1 [TCBZ alone, 6-chloro-5(2-3 dichlorophenoxy)-2-methyl thio-benzimidazole] |  |  |  |  |  |  |  |  | 2 and 12 and 8 and 5 | 6.75 | 56% |  |  |  |
| CC[C@H](C)[C@H]1O[C@]2(CC[C@@H]1C)C[C@@H]1C[C@@H](C/C=C(\C)[C@@H](O[C@H]3C[C@H](OC)[C@@H](O[C@H]4C[C@H](OC)[C@@H](O)[C@H](C)O4)[C@H](C)O3)[C@@H](C)/C=C/C=C3\CO[C@@H]4[C@H](O)C(C)=C[C@@H](C(=O)O1)[C@]34O)O2 [IVM, ivermectin] |  |  |  |  |  |  |  |  |  |  |  | 281.2 ± 32.6 ng/mL | 21.3 ± 13.3 ng/mL |  |
| C[S+]([O-])c1nc2cc(Oc3cccc(Cl)c3Cl)c(Cl)cc2[nH]1 (stereo not shown) [TCBZ.SO, triclabendazole sulphoxide] | 661.5 ± 148.5 µg·h/mL | up to 144 h | 653.9 ± 140.6 µg·h/mL | 14000 ± 850 ng/mL | 38.8 ± 10.5 h | 17.5 ± 8.45 h | 6.85 ± 2.18 h | 22.5 ± 7.55 h |  |  |  |  |  | 42% |
